Assay results taken from US20060106038A1, “Methods for treating and/or preventing aberrant proliferation of hematopoietic cells” (ICOS CORPORATION, priority 2004, published 2006).
Like-named read-outs stand apart in the source and are kept apart here.

Columns and labels:
[1] = tested on: myeloid and erythroid colony formation; assay: Methylcellulose clonogenic assay; type: cell-based; settings: PI3Kδ selective inhibitor at 10 μM
AML cells = assay: Cell proliferation assay, [3H]-Thymidine incorporation, AML cells; type: cell-based; settings: Homo sapiens, 48 h, PI3Kδ selective inhibitor 10 μM, rapamycin 50 ng/ml
Protocol: Cell proliferation assays were conducted to determine whether PI3K inhibition contributes to AML cell viability. In most PI3K-positive samples tested, the mTOR pathway was activated as assessed by phosphorylation of P70S6K protein on Threonine 389. Thus, proliferation assays were also conducted to determine whether mTOR contributes to AML cell viability. Accordingly, proliferation assays were performed on AML cells with or without the following inhibitor compounds: LY294002, a PI3Kδ selective inhibitor, rapamycin, or a combination of the PI3Kδ selective inhibitor and rapamycin. Cell proliferation was determined by measuring DNA synthesis by [3H]-Thymidine incorporation. Comparative experiments were performed on CD34+ cord blood cells.
For AML cells (obtained as previously described in Example 1), BMMCs were cultured at 3×10^5/ml in alpha medium containing 5% fetal calf serum (FCS) without cytokines for 48 hours, with or without the following inhibitors: LY294002 at 25 μM, PI3Kδ selective inhibitor at 10 μM, rapamycin at 50 ng/ml, or an association of a PI3Kδ selective inhibitor and rapamycin, and incubated in 96-well plates in triplicate. [^3H]-Thymidine was added for a final 6 hour pulse, and the amount of radioactivity incorporated in cells was determined by trichloracetic acid (TCA) precipitation. […] DNA synthesis was measured by [^3H]-Thymidine incorporation after […].

SMILES: O=c1cc(N2CCOCC2)oc2c(-c3ccccc3)cccc12 [LY294002]
- inhibition at 10 µM [1]: 95%

SMILES: CO[C@H]1C[C@@H]2CC[C@@H](C)[C@@](O)(O2)C(=O)C(=O)N2CCCC[C@H]2C(=O)O[C@H]([C@H](C)C[C@@H]2CC[C@@H](O)[C@H](OC)C2)CC(=O)[C@H](C)/C=C(\C)[C@@H](O)[C@@H](OC)C(=O)[C@H](C)C[C@H](C)/C=C/C=C/C=C/1C [rapamycin]
- inhibition at 10 µM (AML cells; PI3K-positive AML samples, read-out: inhibition of proliferation of leukemic cells): 64%
- inhibition at 10 µM (AML cells; representative PI3K-negative AML cell sample, read-out: inhibition of proliferation of leukemic cells (mean values)): 29%
